In US3935255A, “Phenylacetic acid derivatives” (Laboratoires Jacques Logeais, priority 1973, dated 1976):
Like-named read-outs stand apart in the source and are kept apart here.

Key:
[1] = system: fever induced by injection of barm; experiment: Antipyretic action against fever induced by injection of barm, in rats; assay type: in vivo; settings: p.o.
Source text: (§1) Said properties were evidenced in animals by means of conventional pharmacological tests.
Antipyretic action, against fever induced by injection of barm, in rats.

[2] = Koster test (analgesic action); assay type: in vivo; settings: po
Source text: as §1
Analgesic action: Koster test (cf. KOSTER and ANDERSON. Feder. Proceed., 1959, 18, 412)

[3] = system: carrageenin-induced edema; experiment: Carrageenin-induced edema in rats (anti-inflammatory action); assay type: in vivo; settings: Rattus norvegicus, po
Source text: as §1
(§2) Anti-inflammatory action:
carrageenin-induced edema in rats (cf. WINTER, RISLEY and MUSS, Proc. Soc. Exp. Biol. Med., 1962, 111, 544),

LD50 (acute toxicity) = settings: in vivo
[4] = system: ultraviolet-induced erythema; experiment: Ultraviolet-induced erythema in guinea-pigs (anti-inflammatory action); assay type: in vivo; settings: Cavia porcellus, po, read-out: UV-induced erythema ED50
Source text: as §1, §2
ultraviolet-induced erythema in guinea-pigs (cf. WINTER, Arch. Int. Pharmaco., 1958, 116, 261),

[5] = system: adjuvant-induced polyarthritis; experiment: Adjuvant-induced polyarthritis in rats (anti-inflammatory action); assay type: in vivo; settings: Rattus norvegicus, 336 h, p.o., oral dosage which decreases by at least 50% the manifestations of arthritis within 14 days
Source text: as §1, §2
adjuvant-induced polyarthritis in rats, determination of the oral dosage (mg/kg/day) which decreases by at least 50% the manifestations of arthritis within 14 days.

Row | Compound | Antipyretic action [1] [mg·kg] | ED50 [2] [mg/kg] | ED40 [3] [mg/kg] | LD50 (LD50 (acute toxicity); ip, I.P., read-out: LD50 I.P.) [mg/kg] | LD50 (LD50 (acute toxicity); po, P.O., read-out: LD50 P.O.) [mg/kg] | ED50 [4] [mg/kg] | ED50 [5] [mg/kg]
1 | CC(C(=O)O)c1ccc(C2=CC(=NO)CCC2)cc1 (stereo not drawn) [Example 1, 2-[4-(3'-Hydroxyimino-cyclohexen-1'-yl)-phenyl]propionic acid] | 30 | 30 to 50 | 2.2 | > 100 | > 100 |  | 
2 | CC(C(=O)O)c1ccc(C2CCCC(=NO)C2)cc1 (stereo not drawn) [Example 2, 2-[4-(3'-Hydroxyimino-cyclohexyl)phenyl]propionic acid] | 3 | 4.5 | 0.25 | > 200 | > 200 | 2 | 0.9
